By melting point is commonly meant the temperature, or range, at which the solid turns liquid. With `N#Cc1ccc([C@@H]2CN(Cc3ccccc3)C[C@@]23NC(=O)N(c2cc(Cl)cc(Cl)c2)C3=O)cc1` (relative stereo), the melting point stood at 200 °C.

Consider `CC(C)CCCC(C)C1CCC2C3CC=C4CC(O)CC(O)C4(C)C3CCC12C` (centres undefined), for which the melting point was in the range of 158 to 161 °C.

`C=C(C)OC(=O)N1C(=O)[C@H](C)Nc2cc(Cl)ccc21` returned a melting point of 158 to 159 °C.

`CCCCc1nc2c(N)nc3ccccc3c2n1CCN1C(=N)NC2CSC(CCCCC(N)=O)C21` (centres undefined) had a melting point of 95 to 96 °C.

`COC(=O)Cc1ccc(C(=O)c2ccc(OC)cc2)n1C` returned a melting point of 104 to 105 °C.

As to `CC=Cc1nc2c(C(F)(F)F)cccc2c(O)c1C(=O)Nc1nccs1`, the melting point is 265 °C.

In turn, `CCOC(=O)C=CC(=O)c1ccc(Oc2ccc(Cl)c(Cl)c2)cc1` came in with a melting point of 115 to 117 °C.

As for `O=C1Nc2ccccc2C1CCCCN1CCN(c2ccc(Cl)c(Cl)c2)CC1` (centres undefined), the melting point lay in the range of 112 to 114 °C.

In the case of `CC(c1cc(F)ccc1O)c1cc(Cl)cc(C(C)c2cc(F)ccc2O)c1O` (centres undefined), the melting point worked out at 224 °C.

The compound `COC(=O)c1ccc(Cc2cc3cc(C(F)(F)F)ccc3n2S(=O)(=O)c2ccc(C(C)C)cc2)cc1F` returned a melting point of 132 °C.

Regarding `Cc1ccc(-c2oncc2CCC(=O)O)cc1`, the melting point fell in the range of 121 to 122 °C.

As for `COc1cn(-c2ccc(-n3cccn3)cc2F)nc(-c2ccnn2-c2cccc(Cl)c2)c1=O`, the melting point lay in the range of 186 to 190 °C.

`CCOC(=O)c1cccc2c1CCc1cc(O)ccc1S2` gave a melting point of 125 to 129 °C.

`CCCCCC(CC(=O)Nc1cc(C(=O)O)ccc1C(C)(C)C)c1ccc(C(=O)CCC)cc1OC` (centres undefined): the melting point was 136 to 138 °C.

In turn, `COc1ccc(CCNc2cc(-n3cccn3)nc(-c3cccs3)n2)cc1OC` showed a melting point of 116 to 117 °C.

Consider `Clc1nccnc1Sc1ccccc1`, for which the melting point was in the range of 100 to 111 °C.

Compound `COc1ccc(C(=CC(=O)N2CCOCC2)c2ccc(NC(=O)NS(=O)(=O)c3ccc(C)cc3)cc2)cc1OC` showed a melting point of 220 to 225 °C.

`NS(=O)(=O)c1ccc(NN=C2C(=O)Nc3ccc(C(=O)NCCN4CCOCC4)cc32)cc1` came in with a melting point of 210 to 212 °C.

As to `CCC(NC(=O)c1c(O)c(-c2ccccc2)nc2ccccc12)c1ccccc1` (single isomer, unassigned; (-)), the melting point lay within 122 to 125 °C.

Consider `COc1ccc([C@@H]2Cc3c(Cl)cccc3NC(=O)[C@@H]2O)cc1`, for which the melting point was 191 to 193 °C.

In turn, `FC(F)(F)c1ccc(Oc2ccc3nnsc3c2)c(Cl)c1` displayed a melting point of 72 to 73 °C.

For `CC(=O)c1cccc(F)c1C(=O)O`, the melting point fell in the range of 76 to 81.5 °C.

The compound `CCCCc1cccn1NS(=O)(=O)C1CCCC=C1C(=O)OCC` (centres undefined) showed a melting point of 49 to 50 °C.

Compound `CC(C)(C)[Si](C)(C)Oc1cccc(C(O)C(c2ccccc2)C2SCCCS2)c1` (centres undefined) registered a melting point of 75 to 76 °C.

Compound `CCCCCCCCCCCCC(C)(CO)CO` had a melting point of 67 to 68 °C.

Consider `Cc1noc(NS(=O)(=O)c2ccc(Nc3ccc([N+](=O)[O-])cc3[N+](=O)[O-])cc2)c1C`, for which the melting point amounted to 187 °C.

Consider `O=C1NN=C(c2ccc3[nH]c(-c4ccncc4)cc3c2)CO1`, for which the melting point lay within 322 to 325 °C.

For `CSc1ncc2cc(CBr)c(=O)n(C3CCCC3)c2n1`, the melting point lay within 103 to 105 °C.

On to `NC1=NC2CCCc3cccc(c32)N1` (centres undefined), for which the melting point fell in the range of 230 to 232 °C.

As to `CN(C)c1c(C(=O)c2ccccc2)[nH]c2cc(Cl)ccc12`, the melting point fell in the range of 178 to 180 °C.

Consider `COc1c(O)c(C)c(CN2CCN(C(=S)SC)CC2)c(O)c1OC`, for which the melting point was in the range of 135 to 136 °C.

On to `CN(C)C(=O)c1cn(-c2cc3c(=O)n(NS(C)(=O)=O)c(=O)[nH]c3cc2C(F)(F)F)cn1`, for which the melting point lay within 284 to 286 °C.

On to `COc1c(O)ccc2cc(-c3ccc(O)cc3)ccc12`, for which the melting point was 204 to 206 °C.

Regarding `CCCCOc1ccc2[nH]n(Cc3ccccc3)c(=O)c2c1`, the melting point fell in the range of 146 to 147 °C.

The record behind these values is a melting point compilation (Tetko et al.; mined from patent text by program, amines drawn as free bases though some values may be those of a salt).
